From PubChem BioAssay (NCI)
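Results reflect a 48-hour exposure of cells in 96-well plates to compound at five concentrations. At the GI50, growth is halved. TGI is the concentration that stops growth completely.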

System: OVCAR-3 ovarian
Test: growth of human tumour cells (NCI), 48 h

`CC/C(=C\c1ccc(OC)cc1)c1ccc(OC)cc1` and `C=CCNC(=S)/N=C/C(C(=O)Nc1ccccc1C)=C(\C)O` cannot be ordered by TGI: greater than 100 µM for the first, greater than 100 µM for the second.

`N#Cc1nc(/C=C/c2cccnc2)oc1N` showed a TGI greater than 100 µM.

System: SR leukemia
Test: growth of human tumour cells (NCI), 48 h

Compared with `O=c1[nH]c2ccc(CC(=S)N3CCCCC3)cc2s1`, `O=C(Nc1cccc(C(F)(F)F)c1)c1cc2ccccc2cc1O` is lower in TGI: greater than 100 µM for the first, 12.3 µM for the second.

`N#Cc1nc(/C=C/c2cccnc2)oc1N` was tested, and the TGI was greater than 100 µM.

Work on `O=C(Nc1cccc(C(F)(F)F)c1)c1cc2ccccc2cc1O` yielded a GI50 of 0.533 µM.

System: CAKI-1 renal
Test: growth of human tumour cells (NCI), 48 h

`O=c1[nH]c2ccc(CC(=S)N3CCCCC3)cc2s1` and `O=c1cc(N2CCCC2)[nH]c(=O)n1-c1ccc(Cl)cc1` cannot be ordered by TGI: greater than 100 µM for the first, greater than 100 µM for the second.

Compared with `O=C(Nc1cccc(C(F)(F)F)c1)c1cc2ccccc2cc1O`, `CC/C(=C\c1ccc(OC)cc1)c1ccc(OC)cc1` is higher in TGI: 1.22 µM for the first, greater than 100 µM for the second.

`N#Cc1nc(/C=C/c2cccnc2)oc1N` and `C=CCNC(=S)/N=C/C(C(=O)Nc1ccccc1C)=C(\C)O` cannot be ordered by TGI: greater than 100 µM for the first, greater than 100 µM for the second.

Compound `O=C(Nc1cccc(C(F)(F)F)c1)c1cc2ccccc2cc1O` has a GI50 of 0.345 µM.

System: SK-MEL-28 melanoma
Test: growth of human tumour cells (NCI), 48 h

`O=c1[nH]c2ccc(CC(=S)N3CCCCC3)cc2s1` and `O=c1cc(N2CCCC2)[nH]c(=O)n1-c1ccc(Cl)cc1` cannot be ordered by TGI: greater than 100 µM for the first, greater than 100 µM for the second.

First: CCCCCCCCCCCCCCCC1(OC)C[N+](C)(C)CCO1 (stereo not drawn)
Second: N#Cc1nc(/C=C/c2cccnc2)oc1N
The TGI of the first is lower: 6.33 µM for the first, greater than 100 µM for the second.

With `O=C(Nc1cccc(C(F)(F)F)c1)c1cc2ccccc2cc1O` the TGI was greater than 100 µM.

In the case of `O=C(Nc1cccc(C(F)(F)F)c1)c1cc2ccccc2cc1O`, the GI50 is reported as 3.05 µM.

System: DU-145 prostate
Test: growth of human tumour cells (NCI), 48 h

`O=c1[nH]c2ccc(CC(=S)N3CCCCC3)cc2s1` and `O=c1cc(N2CCCC2)[nH]c(=O)n1-c1ccc(Cl)cc1` cannot be ordered by TGI: greater than 100 µM for the first, greater than 100 µM for the second.

First: CCCCCCCCCCCCCCCC1(OC)C[N+](C)(C)CCO1 (stereo not drawn)
Second: CC/C(=C\c1ccc(OC)cc1)c1ccc(OC)cc1
The TGI of the first is lower: 5.9 µM for the first, greater than 100 µM for the second.

`O=C(Nc1cccc(C(F)(F)F)c1)c1cc2ccccc2cc1O` and `C=CCNC(=S)/N=C/C(C(=O)Nc1ccccc1C)=C(\C)O` cannot be ordered by TGI: greater than 100 µM for the first, greater than 100 µM for the second.

Work on `N#Cc1nc(/C=C/c2cccnc2)oc1N` yielded a TGI greater than 100 µM.

In the case of `O=C(Nc1cccc(C(F)(F)F)c1)c1cc2ccccc2cc1O`, the GI50 is reported as 2.22 µM.

System: HCT-116 colon
Test: growth of human tumour cells (NCI), 48 h

`O=c1[nH]c2ccc(CC(=S)N3CCCCC3)cc2s1` and `O=c1cc(N2CCCC2)[nH]c(=O)n1-c1ccc(Cl)cc1` cannot be ordered by TGI: greater than 100 µM for the first, greater than 100 µM for the second.

Going from `CCCCCCCCCCCCCCCC1(OC)C[N+](C)(C)CCO1` (stereo not drawn) to `CC/C(=C\c1ccc(OC)cc1)c1ccc(OC)cc1`, the TGI rises from 3.38 µM to greater than 100 µM.

First: O=C(Nc1cccc(C(F)(F)F)c1)c1cc2ccccc2cc1O
Second: C=CCNC(=S)/N=C/C(C(=O)Nc1ccccc1C)=C(\C)O
The TGI of the first is lower: 10.1 µM for the first, greater than 100 µM for the second.

With `N#Cc1nc(/C=C/c2cccnc2)oc1N` the TGI was greater than 100 µM.

`O=C(Nc1cccc(C(F)(F)F)c1)c1cc2ccccc2cc1O` gave a GI50 of 1.15 µM.

System: SK-OV-3 ovarian
Test: growth of human tumour cells (NCI), 48 h

`O=c1[nH]c2ccc(CC(=S)N3CCCCC3)cc2s1` and `O=c1cc(N2CCCC2)[nH]c(=O)n1-c1ccc(Cl)cc1` cannot be ordered by TGI: greater than 100 µM for the first, greater than 100 µM for the second.

Compared with `CCCCCCCCCCCCCCCC1(OC)C[N+](C)(C)CCO1` (stereo not drawn), `CC/C(=C\c1ccc(OC)cc1)c1ccc(OC)cc1` is higher in TGI: 21.8 µM for the first, greater than 100 µM for the second.

Compared with `O=C(Nc1cccc(C(F)(F)F)c1)c1cc2ccccc2cc1O`, `C=CCNC(=S)/N=C/C(C(=O)Nc1ccccc1C)=C(\C)O` is higher in TGI: 6.32 µM for the first, greater than 100 µM for the second.

For `N#Cc1nc(/C=C/c2cccnc2)oc1N`, the TGI was greater than 100 µM.

`O=C(Nc1cccc(C(F)(F)F)c1)c1cc2ccccc2cc1O` was tested, and the GI50 was 1.55 µM.

System: HOP-62 NSCLC
Test: growth of human tumour cells (NCI), 48 h

`O=c1[nH]c2ccc(CC(=S)N3CCCCC3)cc2s1` and `O=c1cc(N2CCCC2)[nH]c(=O)n1-c1ccc(Cl)cc1` cannot be ordered by TGI: greater than 100 µM for the first, greater than 100 µM for the second.

First: O=C(Nc1cccc(C(F)(F)F)c1)c1cc2ccccc2cc1O
Second: CC/C(=C\c1ccc(OC)cc1)c1ccc(OC)cc1
The TGI of the first is lower: 11.8 µM for the first, greater than 100 µM for the second.

`N#Cc1nc(/C=C/c2cccnc2)oc1N` and `C=CCNC(=S)/N=C/C(C(=O)Nc1ccccc1C)=C(\C)O` cannot be ordered by TGI: greater than 100 µM for the first, greater than 100 µM for the second.

For `O=C(Nc1cccc(C(F)(F)F)c1)c1cc2ccccc2cc1O`, the GI50 was 2.61 µM.

System: MDA-MB-435
Test: growth of human tumour cells (NCI), 48 h

`O=c1[nH]c2ccc(CC(=S)N3CCCCC3)cc2s1` and `O=c1cc(N2CCCC2)[nH]c(=O)n1-c1ccc(Cl)cc1` cannot be ordered by TGI: greater than 100 µM for the first, greater than 100 µM for the second.

First: CCCCCCCCCCCCCCCC1(OC)C[N+](C)(C)CCO1 (stereo not drawn)
Second: CC/C(=C\c1ccc(OC)cc1)c1ccc(OC)cc1
The TGI of the first is lower: 3.63 µM for the first, greater than 100 µM for the second.

Compared with `O=C(Nc1cccc(C(F)(F)F)c1)c1cc2ccccc2cc1O`, `C=CCNC(=S)/N=C/C(C(=O)Nc1ccccc1C)=C(\C)O` is higher in TGI: 4.72 µM for the first, greater than 100 µM for the second.

For `N#Cc1nc(/C=C/c2cccnc2)oc1N`, the TGI was greater than 100 µM.

`O=C(Nc1cccc(C(F)(F)F)c1)c1cc2ccccc2cc1O` was tested, and the GI50 was 1.37 µM.

System: EKVX NSCLC
Test: growth of human tumour cells (NCI), 48 h

First: CCCCCCCCCCCCCCCC1(OC)C[N+](C)(C)CCO1 (stereo not drawn)
Second: CC/C(=C\c1ccc(OC)cc1)c1ccc(OC)cc1
The TGI of the first is lower: 5.76 µM for the first, greater than 100 µM for the second.

Compared with `O=c1cc(N2CCCC2)[nH]c(=O)n1-c1ccc(Cl)cc1`, `O=C(Nc1cccc(C(F)(F)F)c1)c1cc2ccccc2cc1O` is lower in TGI: greater than 100 µM for the first, 7.69 µM for the second.

`N#Cc1nc(/C=C/c2cccnc2)oc1N` and `C=CCNC(=S)/N=C/C(C(=O)Nc1ccccc1C)=C(\C)O` cannot be ordered by TGI: greater than 100 µM for the first, greater than 100 µM for the second.

For `O=C(Nc1cccc(C(F)(F)F)c1)c1cc2ccccc2cc1O`, the GI50 was 1.87 µM.

System: M14 melanoma
Test: growth of human tumour cells (NCI), 48 h

`O=c1[nH]c2ccc(CC(=S)N3CCCCC3)cc2s1` and `O=c1cc(N2CCCC2)[nH]c(=O)n1-c1ccc(Cl)cc1` cannot be ordered by TGI: greater than 100 µM for the first, greater than 100 µM for the second.

First: CCCCCCCCCCCCCCCC1(OC)C[N+](C)(C)CCO1 (stereo not drawn)
Second: CC/C(=C\c1ccc(OC)cc1)c1ccc(OC)cc1
The TGI of the first is lower: 3.13 µM for the first, greater than 100 µM for the second.

Going from `O=C(Nc1cccc(C(F)(F)F)c1)c1cc2ccccc2cc1O` to `C=CCNC(=S)/N=C/C(C(=O)Nc1ccccc1C)=C(\C)O`, the TGI rises from 48.7 µM to greater than 100 µM.

In the case of `N#Cc1nc(/C=C/c2cccnc2)oc1N`, the TGI is reported as greater than 100 µM.

`O=C(Nc1cccc(C(F)(F)F)c1)c1cc2ccccc2cc1O` showed a GI50 of 3.26 µM.

System: NCI-H23 lung
Test: growth of human tumour cells (NCI), 48 h

`O=c1[nH]c2ccc(CC(=S)N3CCCCC3)cc2s1` and `O=c1cc(N2CCCC2)[nH]c(=O)n1-c1ccc(Cl)cc1` cannot be ordered by TGI: greater than 100 µM for the first, greater than 100 µM for the second.

First: CCCCCCCCCCCCCCCC1(OC)C[N+](C)(C)CCO1 (stereo not drawn)
Second: CC/C(=C\c1ccc(OC)cc1)c1ccc(OC)cc1
The TGI of the first is lower: 2.81 µM for the first, greater than 100 µM for the second.

Going from `O=C(Nc1cccc(C(F)(F)F)c1)c1cc2ccccc2cc1O` to `C=CCNC(=S)/N=C/C(C(=O)Nc1ccccc1C)=C(\C)O`, the TGI rises from 8.14 µM to greater than 100 µM.

For `N#Cc1nc(/C=C/c2cccnc2)oc1N`, the TGI was greater than 100 µM.

Work on `O=C(Nc1cccc(C(F)(F)F)c1)c1cc2ccccc2cc1O` yielded a GI50 of 0.67 µM.

System: HCC-2998 colon
Test: growth of human tumour cells (NCI), 48 h

First: CCCCCCCCCCCCCCCC1(OC)C[N+](C)(C)CCO1 (stereo not drawn)
Second: CC/C(=C\c1ccc(OC)cc1)c1ccc(OC)cc1
The TGI of the first is lower: 6.18 µM for the first, greater than 100 µM for the second.

Compared with `O=c1cc(N2CCCC2)[nH]c(=O)n1-c1ccc(Cl)cc1`, `O=C(Nc1cccc(C(F)(F)F)c1)c1cc2ccccc2cc1O` is lower in TGI: greater than 100 µM for the first, 28.8 µM for the second.

`N#Cc1nc(/C=C/c2cccnc2)oc1N` and `C=CCNC(=S)/N=C/C(C(=O)Nc1ccccc1C)=C(\C)O` cannot be ordered by TGI: greater than 100 µM for the first, greater than 100 µM for the second.

In the case of `O=C(Nc1cccc(C(F)(F)F)c1)c1cc2ccccc2cc1O`, the GI50 is reported as 3.35 µM.

System: NCI-H226 lung
Test: growth of human tumour cells (NCI), 48 h

Compared with `CCCCCCCCCCCCCCCC1(OC)C[N+](C)(C)CCO1` (stereo not drawn), `CC/C(=C\c1ccc(OC)cc1)c1ccc(OC)cc1` is higher in TGI: 3.6 µM for the first, greater than 100 µM for the second.

`O=c1cc(N2CCCC2)[nH]c(=O)n1-c1ccc(Cl)cc1` and `O=C(Nc1cccc(C(F)(F)F)c1)c1cc2ccccc2cc1O` cannot be ordered by TGI: greater than 100 µM for the first, greater than 100 µM for the second.

`N#Cc1nc(/C=C/c2cccnc2)oc1N` and `C=CCNC(=S)/N=C/C(C(=O)Nc1ccccc1C)=C(\C)O` cannot be ordered by TGI: greater than 100 µM for the first, greater than 100 µM for the second.

In the case of `O=C(Nc1cccc(C(F)(F)F)c1)c1cc2ccccc2cc1O`, the GI50 is reported as 2.22 µM.

System: A549 NSCLC
Test: growth of human tumour cells (NCI), 48 h

Going from `CCCCCCCCCCCCCCCC1(OC)C[N+](C)(C)CCO1` (stereo not drawn) to `CC/C(=C\c1ccc(OC)cc1)c1ccc(OC)cc1`, the TGI rises from 3.45 µM to greater than 100 µM.

`O=c1cc(N2CCCC2)[nH]c(=O)n1-c1ccc(Cl)cc1` and `O=C(Nc1cccc(C(F)(F)F)c1)c1cc2ccccc2cc1O` cannot be ordered by TGI: greater than 100 µM for the first, greater than 61.6 µM for the second.

`N#Cc1nc(/C=C/c2cccnc2)oc1N` and `C=CCNC(=S)/N=C/C(C(=O)Nc1ccccc1C)=C(\C)O` cannot be ordered by TGI: greater than 100 µM for the first, greater than 100 µM for the second.

Compound `O=C(Nc1cccc(C(F)(F)F)c1)c1cc2ccccc2cc1O` has a GI50 of 2.7 µM.
